In US20120070487A1, “ALKYLSACCHARIDE COMPOSITIONS WITH NUTRACEUTICALS” (AEGIS THERAPEUTICS LLC, priority 2010, published 2012):
Values belong to the compound of their own block, whether it stands above or below them. Where a SMILES comes first, the peptide text is derived from it. [ ]: non-standard residue; d: D form.

Columns and labels:
[1] = Oral absorption of calcium with alkylsaccharide; blood levels in volunteers; type: in vivo, human; conditions: oral gelatin capsules, calcium citrate admixed with 3% dodecyl maltoside
Protocol: Calcium citrate is obtained from General Nutrition Corp. as 1000 mg tablets. The tablets are ground in a mortar and pestle until a fine uniform powder is created. The powder is admixed with 3% dodecyl maltoside, pharmaceutical grade (Inalco Chemical Co., Milan Italy) and filled into gelatin capsules, size #000-25 mm length (Capsuline, Pompano Beach, Fla.) and administered to volunteers. Blood samples are collected and calcium levels are measured by commercial clinical laboratory. The calcium blood levels obtained following oral administration with dodecyl maltoside are seen to be at least 20% higher than those obtained in the absence of dodecyl maltoside.

[2] = Oral absorption of resveratrol with sucrose laurate; blood levels in volunteers; type: in vivo, human; conditions: oral gelatin capsules, admixed with 5% w/w sucrose laurate
Protocol: Resveratrol was obtained from RevGenetics, Miami, Fla., as 300 mg gel capsules. Capsules were opened by carefully separating the two halves. The contents were combined and admixed with 5% w/w food grade sucrose laurate alkylsaccharide (Ryoto Sugar Ester M-1216, Mitsubishi-Kagaku Tokyo, Japan). Gelatin capsules were filled with the admixture and administered to volunteers. Blood samples are collected and resveratrol levels are measured by the method of Soleas et al. (Methods Enzymol 335: 130-45 (2001)). The resveratrol blood levels obtained following oral administration with sucrose laurate are at least 20% higher than those obtained in the absence of sucrose laurate.

[3] = mouse, in vivo
Protocol: (§1) Doses of 1 mg each were also administered to mice by the IP, SC and IM routes in solutions containing 0.18% tetradecyl beta-D-maltoside and compared to administration by oral gavage in a solution containing 0.3% (3 mg/mL wt/vol) of tetradecyl-beta-D-maltoside.
(§2) Six week-old male Swiss Webster mice weighing approximately 30 gm were maintained at a constant temperature (24 C) with lights on from 07:00 to 19:00 h, and allowed food and water ad libitum until used for uptake studies. […] For sc, im, and ip delivery, the peptide was dissolved in sterile phosphate buffered saline (PBS, pH 7.2) at a concentration of 1 mg/200 μL as described previously containing 0.18% tetradecyl-beta-D-maltoside. For oral gavage [D-Leu-4]OB3 was dissolved in 0.3% dodecyl-beta-D-maltoside reconstituted in PBS (pH 7.2) at a concentration of 1 mg/200 μL. […]
(§3) The [D-Leu-4]OB3 competitive ELISA assay was carried out as follows. […] Absorbance was read at 405 nm with a Molecular Devices microplate reader (MDS Sciex, Concord, Ontario Canada). […] The relative bioavailability was determined by plotting the serum concentrations of mouse [D-Leu-4]OB3 vs. time following ip, sc, or im delivery using the graphics program SigmaPlot™ 8.0 (SPSS Science, Chicago, Ill., USA). The area under each curve (AUC) was calculated with a function of this program.

in vivo = conditions: male, Swiss Webster, mouse, po, 1 mg
Protocol: as §1, §2, §3

SMILES: O=C([O-])CC(O)(CC(=O)[O-])C(=O)[O-].O=C([O-])CC(O)(CC(=O)[O-])C(=O)[O-].[Ca+2].[Ca+2].[Ca+2] [Calcium citrate]
calcium blood levels, increase versus absence of dodecyl maltoside [1]: at least 20%

resveratrol blood levels, increase versus absence of sucrose laurate [2]: at least 20%
SMILES: Oc1ccc(C=Cc2cc(O)cc(O)c2)cc1 [Resveratrol]

Relative Oral Bioavailability Compared to Three Injection Modes (% of AUC achieved by each respective injection) [3]: 37.8% of IM AUC | F rel (in vivo): 47.3%
SMILES: CC(C)C[C@@H](NC(=O)[C@H](CO)NC(=O)[C@H](CS)NC(=O)[C@@H](N)CO)C(=O)N1CCC[C@H]1C(=O)N[C@@H](CCC(N)=O)C(=O)N[C@H](C(N)=O)[C@@H](C)O [[D-Leu-4]OB3, Ser-Cys-Ser-D-Leu-Pro-Gln-Thr] (H-SCS[dL]PQT-NH2; N-terminus assumed)
